This note sets out measurements from PubChem BioAssay (NCI).

Molecules are shown by their SMILES.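 Cells were grown in 96-well plates and exposed to each compound for 48 hours at five concentrations; endpoints were interpolated linearly between bracketing concentrations, or set to the highest concentration if not reached. TGI: total growth inhibition.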

Assay in all cases: NCI-60 cell line screen, 48 h
Assay [1] deals with SF-268 CNS.
The subject of assay [2] is U251 CNS.
In assay [3] the test system is LOX IMVI melanoma.
Assay [4] concerns NCI-H23 lung.
In assay [5] the test system is SNB-19 CNS.
Assay [6] deals with SK-OV-3 ovarian.
The subject of assay [7] is NCI-H522 lung.
Assay [8] has as its system HT29 colon.
Assay [9] deals with T-47D breast.
For assay [10], the system named is NCI/ADR-RES ovarian.

For `[N-]=[N+]=C1C(=O)C2CC3CC1CC2C3` (stereo not drawn), the TGI in [1], in assay [2], in [3], in assay [4], in assay [5] and in assay [6] was over 100 µM in each case. For the same compound, the TGI in assay [7] and in [8] was over 100 µM in each case.

On to `COC1CC(O[C@H]2CC[C@@]3(C)C(=CCC4(O)C3CCC35C(=O)OC6(C)O[C@@]43CCC65)C2)OC(C)C1O` (stereo partly drawn), for which the TGI in [1], in assay [2], in assay [4], in [5], in assay [6] and in assay [7] was over 100 µM in each case. For the same compound, the TGI in assay [8] is over 100 µM.

On to `CO/S(=N/S(=O)(=O)c1ccccc1)c1ccccc1[N+](=O)[O-]` (stereo not drawn), for which the TGI in assay [1], in assay [2], in assay [3], in assay [4], in assay [5] and in [6] was over 100 µM throughout. In addition, the TGI in assay [7] and in assay [8] was over 100 µM throughout.

With `CC(=O)OCCCCn1nncc1Cn1ccc(=O)n(Cc2cnnn2CCCCOC(C)=O)c1=O`, the TGI in [1], in assay [9], in assay [10], in assay [2], in assay [3] and in [4] was over 100 µM each time. Further, the TGI in [5] and in assay [6] was over 100 µM each time.

Take `COC(=O)c1ccc(NCC2=CC(=O)C=CC2=O)cc1O`: the TGI in assay [1] was over 100 µM; in [9] it was 47.1 µM; in assay [10] it was 47 µM; in assay [2], over 100 µM; in assay [3] it was 37.5 µM; in assay [4], 36.6 µM. The TGI in assay [5] amounted to 48.3 µM; in assay [6], 42.5 µM; in assay [8] it was 38.6 µM.

For the compound `O=CC1=CCCN(CCc2c[nH]c3ccccc23)C1`, the TGI in [1] was determined as 162 µM; in assay [2] it was 105 µM; in [3], 12.2 µM; in assay [4], 101 µM; in assay [5], 92.9 µM; in assay [6], 224 µM. Further, the TGI in assay [7] amounted to 139 µM; in [8] it was 116 µM.

Consider `O=C1/C(=C/c2ccc([N+](=O)[O-])cc2)CCCc2ccccc21`, for which the TGI in assay [1], in assay [10], in assay [2], in [3], in [4] and in assay [5] was over 100 µM each time. Besides, the TGI in assay [6], in [7] and in assay [8] was over 100 µM throughout.

For `COc1c(C)c(C/C=C(\C)CC/C=C(\C)CC/C=C(\C)CC/C=C(\C)CCC=C(C)C)c(OC)c(OC)c1OC`, the TGI was 39.4 µM in assay [1]; 59.8 µM in assay [10]; over 100 µM in assay [2]; 33.7 µM in assay [3]; 44.2 µM in [4]; over 100 µM in assay [5]. For the same compound, the TGI in assay [6] is over 100 µM; in [7], 31.4 µM; in assay [8], over 100 µM.

With `O=c1c2ccccc2ncn1COCc1ccccc1`, the TGI in assay [10], in assay [2], in [3], in assay [5], in assay [6] and in assay [8] was over 100 µM each time.

Consider `CC(=O)OC(OC(C)=O)c1c2ccccc2cc2ccccc12`, for which the TGI in assay [1] is 51.8 µM; in assay [9], 85.2 µM; in assay [10], 46.7 µM; in [2] it was over 100 µM; in assay [3] it was 59.9 µM; in assay [4], over 100 µM. Also, the TGI worked out at 96.3 µM in [5], 52.4 µM in [6] and 28.6 µM in [8].

Consider `CSc1nc2nccnc2c(=O)[nH]1`, for which the TGI in [1], in [2], in assay [3], in assay [4], in assay [5] and in assay [6] was over 100 µM in each case. Moreover, the TGI in assay [7] and in assay [8] was over 100 µM throughout.

With `CCSC1=N/C(=C\c2ccco2)C(Nc2ccc(C)cc2)=N1`, the TGI in assay [1], in assay [10], in assay [2], in [3], in assay [4] and in assay [5] was over 100 µM in each case. Moreover, the TGI in [6], in [7] and in [8] was over 100 µM in each case.

`CC(C)CC(C#CCCOC(=O)c1ccccc1)OC(=O)c1ccccc1` (stereo not drawn): the TGI in [1], in [9], in assay [2], in assay [3], in assay [4] and in assay [5] was over 10 µM in each case. In addition, the TGI in assay [6] and in [8] was over 10 µM in each case.

As for `CC1=C(C(=O)O)N2C(=O)[C@@H](NC(=O)C(c3ccccc3)N3CSC(=S)N(C(C)C)C3)C2SC1` (stereo partly drawn), the TGI was over 100 µM in assay [2]; over 100 µM in assay [3]; over 100 µM in assay [4]; over 100 µM in [5]; over 100 µM in [6]; 66.6 µM in assay [7]. Moreover, in [8], the TGI is over 100 µM.

In the case of `COc1nc2c(c(=O)[nH]1)N=C(c1ccccc1)CC(c1ccccc1)N2` (stereo not drawn), the TGI in [10], in [2], in assay [3], in assay [4], in [5] and in [6] was over 100 µM each time. Besides, the TGI in assay [7] and in assay [8] was over 100 µM each time.

On to `CCCNC(=O)Cn1c2c(c3ccccc31)CCCC2`, for which the TGI in assay [1], in [10], in assay [3], in [4], in assay [5] and in assay [6] was over 100 µM in each case. The compound further gave a TGI in assay [8] of over 100 µM.
